# Experimental data as given in PMC6331810, “Novel Coumarin-Containing Aminophosphonatesas Antitumor Agent: Synthesis, Cytotoxicity, DNA-Binding and Apoptosis Evaluation” (Molecules, 2015).
# Legend:
# [1] = test system: MGC-803 (human lung adenocarcinoma cell line); assay: MTT cytotoxicity assay, MGC-803; assay type: cell-based; details: 48 h, no irradiation, mean ± SD of three experiments
# Protocol: (§1) Cell Lines. The following in vitro human cancer cell lines were used: HCT-116 (Human colorectal cells), human KB (human nasopharyngeal carcinoma cells), MGC-803 (human lung adenocarcinoma cell line), HUVEC (Human Umbilical Vein Endothelial Cells). The cell lines (HCT-116, KB, MGC-803 and HUVEC) were purchased from the Cell Resource Center of Shanghai Institutes for Biological Sciences, the Academy of Sciences of China.
# (§2) Cell Culture. HCT-116, human KB, MGC-803 and HUVEC cells were cultured in Dulbecco Modified Eagle Medium (DMEM; HyClone, Los Angeles, CA, USA), containing 4.0 mM L-Glutamine and 4500 mg/L Glucose, supplemented with 10% (v/v) foetalbovine serum (FBS; HyClone). The cell culturemedia was supplemented with penicillin/streptomycin at 100 Units/mL as adherent monolayers. Cell cultures were kept in a humidified incubator with 5% CO2 at 37 °C. Stock solutions were prepared in dimethyl sulfoxide (DMSO) and further dilutions were made with fresh culture medium. The concentration of DMSO in the final culture medium was 1%, which had no effect on the cell viability.
# (§3) MTT Assay. Chemosensitivity was assessed using 3-(4,5-dimethylthiazol-2-yl)-2,5-diphenyl tetrazolium bromide (MTT) assay. Briefly, exponentially growing HCT-116 (3000–4000 cells/well), human KB (2000–3000 cells/well) and MGC 803 (2000–3000 cells/well) were seeded into 96-well plates and treated with indicated concentrations of samples for 48 h, and then […] of MTT (10 mg/mL) was added. After incubation for 4 h at 37 °C, the purple formazan crystals (i.e., a reduced form of MTT) generated from viable cells were dissolved by adding 100 μL DMSO in each well. The plates were swirled gently for 10 min to dissolve the precipitate, and quantified by measuring the optical density (OD) of the plates at a wavelength of 490 nm on plate reader (TECAN infinite M1000). Each concentration was repeated in three wells and the same experimental conditions were provided for all compounds and MTT analysis was repeated three times for each cell line.
# [2] = test system: HUVEC (Human Umbilical Vein Endothelial Cells); assay: MTT cytotoxicity assay, HUVEC normal cells; assay type: cell-based; details: no irradiation, mean ± SD of three experiments
# Protocol: as §1, §2, §3
# [3] = test system: HCT-116 (Human colorectal cells); assay: MTT cytotoxicity assay, HCT-116; assay type: cell-based; details: for IC50: MTT, 48 h, no irradiation, mean ± SD of three experiments
# Protocol: as §1, §2, §3
# [4] = test system: human KB (human nasopharyngeal carcinoma cells); assay: MTT cytotoxicity assay, human KB; assay type: cell-based; details: Homo sapiens, light or radiation study, 48 h, no irradiation, mean ± SD of three experiments
# Protocol: as §1, §2, §3
# [5] = test system: GelRed/CT-DNA; assay: GelRed-DNA competitive binding (fluorescence quenching); set-up: species or system calf; details: I0/I vs [Q]; [GelRed]/[DNA] = 1:10, ex 350 nm, em 590 nm
# [6] = test system: Bax, Bcl-2, cytochrome c, caspase-9 and caspase-3 in HCT-116 cells; assay: Western blot of apoptosis-related proteins; assay type: cell-based, human
# Description: To confirm the molecular mechanisms involved in the observed apoptosis alterations, we investigated the effects of compound 8j on the expression of proteins important for mitochondria mediated apoptosis. Apoptosis occurs through two different pathways, that is the intrinsic and extrinsic pathways. Intrinsic pathway involves mitochondria that play a pivotal role in apoptosis, whereas extrinsic pathway is mediated by cell death receptors such as Fas, TNF α after receiving the death signal. It is well-known that the intrinsic pathway is regulated by the Bcl-2 family of pro- and anti- apoptotic proteins, which stimulate the permeabilization of the mitochondrial outer membrane and cytochrome c released into the cytosol, promoting in the activation of the caspase cascade and the induction of apoptotic cell death. […] Then, the roles of important caspases (caspase-9 and caspase-3) were investigated. […] Thus, compound 8j induced HCT-116 cells apoptosis might decrease the activation of Bcl-2 and stimulate its downstream proteins which are associated with the mitochondria-dependent apoptotic pathway.
# Figure 7 Effect of compound 8j on cytochrome c release and levels of Bcl-2, Bax, Caspase-9 and Caspase-3. Equal amount of protein was loaded on SDS-PAGE gel for western blot analysis as described in experimental section. β-actin was used as an internal control.
# [7] = HCT-116, vs control cells, dose-dependent
smiles,measurement,setting,value
"CCOP(=O)(OCC)C(C)(NC(=O)CCOc1ccc2c(C)cc(=O)oc2c1)c1ccccc1 (stereo not drawn) [Compound 8j, Diethyl 1-(3-(4-methyl-2-oxo-2H-chromen-7-yloxy)propanamido)-1-phenylethylphosphonate]",IC50,"[1]; Homo sapiens, MGC-803, light or radiation study",14.6 ± 1.11 µM
same,IC50,"[2]; Homo sapiens, HUVEC, light or radiation study",> 100 µM
same,Fold of IC50 against HCT-116 relative to unsubstituted parent compound,"[3]; HCT-116, vs 4-MU",about 12 fold
same,IC50,"[3]; Homo sapiens, HCT-116, light or radiation study",8.68 ± 3.2 µM
same,IC50,[4],0.08 µM
same,Kq (quenching constant of GelRed bound to DNA),[5],2350 M⁻¹
same,Cytochrome c release,"[6]; HCT-116, cytosol",accumulation of cytochrome c in the cytosol
same,Levels of caspase-3 protein,"[6]; HCT-116, vs control",marked increase
same,Levels of caspase-9 protein,"[6]; HCT-116, vs control",marked increase
same,Expression of Bcl-2,[6]; [7],decrease
same,Levels of Bax,[6]; [7],significant increase
"CCOP(=O)(OCC)C(NC(=O)CCOc1ccc2c(C)cc(=O)oc2c1)c1cccc(Br)c1 (stereo not drawn) [Compound 8f, Diethyl(3-(4-methyl-2-oxo-2H-chromen-7-yloxy)propanamido)(3-bromophenyl)methylphospho-nate]",IC50,[1],74.2 ± 3.36 µM
same,IC50,[2],> 100 µM
same,IC50,[3],25.8 ± 1.21 µM
same,Kq (quenching constant of GelRed bound to DNA),[5],1730 M⁻¹
